Legend:
Conditions in all cases: for Combination Fa: 8640 min
MIAPACA2T2 cells = experiment: CellTiter-Glo viability and CalcuSyn synergy, PRMT5 inhibitor + sotorasib, 6 days
LU99 cells = experiment: as above
HCC1395 cells = experiment: CellTiter-Glo viability and CalcuSyn synergy, PRMT5 inhibitor + olaparib, 6 days
A549 cells [1] = experiment: CellTiter-Glo viability and CalcuSyn synergy, PRMT5 inhibitor + KRAS G12X inhibitor, 6 days
UM-UC-3 cells = experiment: CellTiter-Glo viability and CalcuSyn synergy, PRMT5 inhibitor + sotorasib, 6 days; format: cell-based
Experimental: (§1) Raw luminescent values were converted to fraction affected (Fa) with the following equation: […]
(§2) Synergy analysis was performed using the CalcuSyn software to determine CI scores based on the drug concentrations used and corresponding Fa values. Results are shown in Table 6 below. *CI Values (Calcusyn): Strong Synergism: 0.1-0.3; Synergism: 0.3-0.7; Moderate Synergism: 0.7-0.85; Slight Synergism: 0.85-0.9; Nearly Additive: 0.9-1.1.

A549 cells [2] = experiment: CellTiter-Glo viability and CalcuSyn synergy, PRMT5 inhibitor + palbociclib, 6 days
SUM149PT cells = experiment: CellTiter-Glo viability and CalcuSyn synergy, PRMT5 inhibitor + olaparib, 6 days; format: cell-based
Experimental: as §1
as §2, with “Tables 1-3” for “Table 6”

A549 cells [3] = experiment: CellTiter-Glo viability and CalcuSyn synergy, PRMT5 inhibitor + trametinib, 6 days
[4] = Compound B 0.4374 μM + sotorasib 0.00596 μM
[5] = Compound B 0.4374 μM + sotorasib 0.009537 μM
[6] = Compound B 0.4374 μM + sotorasib 0.015259 μM
[7] = Compound B 0.4374 μM + sotorasib 0.024414 μM
[8] = Compound B 0.4374 μM + sotorasib 0.039063 μM
[9] = Compound B 0.4374 μM + sotorasib 0.0625 μM
[10] = Compound B 0.4374 μM + sotorasib 0.1 μM
[11] = Compound B 0.0384 μM + sotorasib 0.15625 μM
[12] = Compound B 0.0384 μM + sotorasib 0.3125 μM
[13] = Compound B 0.0384 μM + sotorasib 0.625 μM
[14] = Compound B 0.0384 μM + sotorasib 1.25 μM
[15] = Compound B 0.0384 μM + sotorasib 2.5 μM
[16] = Compound B 0.0384 μM + sotorasib 5 μM
[17] = Compound B 0.0384 μM + sotorasib 10 μM
[18] = Compound B 1.4579 μM + olaparib 0.103573 μM
[19] = Compound B 1.4579 μM + olaparib 0.176074 μM
[20] = Compound B 1.4579 μM + olaparib 0.299326 μM
[21] = Compound B 1.4579 μM + olaparib 0.508854 μM
[22] = Compound B 1.4579 μM + olaparib 0.865052 μM
[23] = Compound B 1.4579 μM + olaparib 1.47059 μM
[24] = Compound B 1.4579 μM + olaparib 2.5 μM
[25] = Compound B 0.0808 μM + KRAS G12X inhibitor 0.010628 μM
[26] = Compound B 0.0808 μM + KRAS G12X inhibitor 0.020193 μM
[27] = Compound B 0.0808 μM + KRAS G12X inhibitor 0.038367 μM
[28] = Compound B 0.0808 μM + KRAS G12X inhibitor 0.072897 μM
[29] = Compound B 0.0808 μM + KRAS G12X inhibitor 0.138504 μM
[30] = Compound B 0.0808 μM + KRAS G12X inhibitor 0.263158 μM
[31] = Compound B 0.0808 μM + KRAS G12X inhibitor 0.5 μM
[32] = Compound B 0.2916 μM + sotorasib 0.00298 μM
[33] = Compound B 0.2916 μM + sotorasib 0.004768 μM
[34] = Compound B 0.2916 μM + sotorasib 0.007629 μM
[35] = Compound B 0.2916 μM + sotorasib 0.012207 μM
[36] = Compound B 0.2916 μM + sotorasib 0.019531 μM
[37] = Compound B 0.2916 μM + sotorasib 0.03125 μM
[38] = Compound B 0.1535 μM + palbociclib 0.298023 μM
[39] = Compound B 0.1535 μM + palbociclib 0.476837 μM
[40] = Compound B 0.1535 μM + palbociclib 0.762939 μM
[41] = Compound B 0.1535 μM + palbociclib 1.2207 μM
[42] = Compound B 0.1535 μM + palbociclib 1.95313 μM
[43] = Compound B 0.1535 μM + palbociclib 3.125 μM
[44] = Compound B 0.1535 μM + palbociclib 5 μM
[45] = Compound B 0.277008 μM + olaparib 0.103573 μM
[46] = Compound B 0.277008 μM + olaparib 0.176074 μM
[47] = Compound B 0.277008 μM + olaparib 0.299326 μM
[48] = Compound B 0.277008 μM + olaparib 0.508854 μM
[49] = Compound B 0.277008 μM + olaparib 0.865052 μM
[50] = Compound B 0.277008 μM + olaparib 1.47059 μM
[51] = Compound B 0.277008 μM + olaparib 2.5 μM
[52] = Compound B 0.0425 μM + trametinib 0.000213 μM
[53] = Compound B 0.0425 μM + trametinib 0.000404 μM
[54] = Compound B 0.0425 μM + trametinib 0.000767 μM
[55] = Compound B 0.0425 μM + trametinib 0.001458 μM
[56] = Compound B 0.0425 μM + trametinib 0.00277 μM
[57] = Compound B 0.0425 μM + trametinib 0.005263 μM
[58] = Compound B 0.0425 μM + trametinib 0.01 μM

Compound: Cc1cc2cc(C(=O)N(Cc3ccc(C(F)(F)F)cn3)[C@@H](C)c3ncccn3)ccc2nc1N [Compound B]
- Computed CI value (MIAPACA2T2 cells; [4]): 0.533
- Combination Fa (MIAPACA2T2 cells; [4]): 0.678
- Computed CI value (MIAPACA2T2 cells; [5]): 0.425
- Combination Fa (MIAPACA2T2 cells; [5]): 0.749
- Computed CI value (MIAPACA2T2 cells; [6]): 0.443
- Combination Fa (MIAPACA2T2 cells; [6]): 0.781
- Computed CI value (MIAPACA2T2 cells; [7]): 0.535
- Combination Fa (MIAPACA2T2 cells; [7]): 0.798
- Computed CI value (MIAPACA2T2 cells; [8]): 0.543
- Combination Fa (MIAPACA2T2 cells; [8]): 0.838
- Computed CI value (MIAPACA2T2 cells; [9]): 0.471
- Combination Fa (MIAPACA2T2 cells; [9]): 0.887
- Computed CI value (MIAPACA2T2 cells; [10]): 0.83
- Combination Fa (MIAPACA2T2 cells; [10]): 0.875
- Computed CI value (LU99 cells; [11]): 0.307
- Combination Fa (LU99 cells; [11]): 0.5467
- Computed CI value (LU99 cells; [12]): 0.234
- Combination Fa (LU99 cells; [12]): 0.5942
- Computed CI value (LU99 cells; [13]): 0.269
- Combination Fa (LU99 cells; [13]): 0.5919
- Computed CI value (LU99 cells; [14]): 0.273
- Combination Fa (LU99 cells; [14]): 0.615
- Computed CI value (LU99 cells; [15]): 0.32
- Combination Fa (LU99 cells; [15]): 0.6304
- Computed CI value (LU99 cells; [16]): 0.321
- Combination Fa (LU99 cells; [16]): 0.6694
- Computed CI value (LU99 cells; [17]): 0.669
- Combination Fa (LU99 cells; [17]): 0.6476
- Computed CI value (HCC1395 cells; [18]): 0.217
- Combination Fa (HCC1395 cells; [18]): 0.5945
- Computed CI value (HCC1395 cells; [19]): 0.278
- Combination Fa (HCC1395 cells; [19]): 0.6178
- Computed CI value (HCC1395 cells; [20]): 0.338
- Combination Fa (HCC1395 cells; [20]): 0.6595
- Computed CI value (HCC1395 cells; [21]): 0.509
- Combination Fa (HCC1395 cells; [21]): 0.6756
- Computed CI value (HCC1395 cells; [22]): 0.679
- Combination Fa (HCC1395 cells; [22]): 0.711
- Computed CI value (HCC1395 cells; [23]): 0.706
- Combination Fa (HCC1395 cells; [23]): 0.7778
- Computed CI value (HCC1395 cells; [24]): 0.59
- Combination Fa (HCC1395 cells; [24]): 0.8539
- Computed CI value (A549 cells [1]; [25]): 0.38
- Combination Fa (A549 cells [1]; [25]): 0.5945
- Computed CI value (A549 cells [1]; [26]): 0.366
- Combination Fa (A549 cells [1]; [26]): 0.6255
- Computed CI value (A549 cells [1]; [27]): 0.247
- Combination Fa (A549 cells [1]; [27]): 0.7012
- Computed CI value (A549 cells [1]; [28]): 0.284
- Combination Fa (A549 cells [1]; [28]): 0.7187
- Computed CI value (A549 cells [1]; [29]): 0.27
- Combination Fa (A549 cells [1]; [29]): 0.7582
- Computed CI value (A549 cells [1]; [30]): 0.409
- Combination Fa (A549 cells [1]; [30]): 0.7615
- Computed CI value (A549 cells [1]; [31]): 0.503
- Combination Fa (A549 cells [1]; [31]): 0.7849
- Computed CI value (UM-UC-3 cells; [32]): 1.172
- Combination Fa (UM-UC-3 cells; [32]): 0.5393
- Computed CI value (UM-UC-3 cells; [33]): 1.028
- Combination Fa (UM-UC-3 cells; [33]): 0.6004
- Computed CI value (UM-UC-3 cells; [34]): 0.778
- Combination Fa (UM-UC-3 cells; [34]): 0.6836
- Computed CI value (UM-UC-3 cells; [35]): 0.685
- Combination Fa (UM-UC-3 cells; [35]): 0.7355
- Computed CI value (UM-UC-3 cells; [36]): 0.677
- Combination Fa (UM-UC-3 cells; [36]): 0.7685
- Computed CI value (UM-UC-3 cells; [37]): 0.584
- Combination Fa (UM-UC-3 cells; [37]): 0.8141
- Computed CI value (A549 cells [2]; [38]): 0.293
- Combination Fa (A549 cells [2]; [38]): 0.6994
- Computed CI value (A549 cells [2]; [39]): 0.341
- Combination Fa (A549 cells [2]; [39]): 0.7105
- Computed CI value (A549 cells [2]; [40]): 0.497
- Combination Fa (A549 cells [2]; [40]): 0.7007
- Computed CI value (A549 cells [2]; [41]): 0.421
- Combination Fa (A549 cells [2]; [41]): 0.7619
- Computed CI value (A549 cells [2]; [42]): 0.626
- Combination Fa (A549 cells [2]; [42]): 0.761
- Computed CI value (A549 cells [2]; [43]): 0.685
- Combination Fa (A549 cells [2]; [43]): 0.7958
- Computed CI value (A549 cells [2]; [44]): 0.377
- Combination Fa (A549 cells [2]; [44]): 0.8818
- Computed CI value (SUM149PT cells; [45]): 0.618
- Combination Fa (SUM149PT cells; [45]): 0.747
- Computed CI value (SUM149PT cells; [46]): 0.579
- Combination Fa (SUM149PT cells; [46]): 0.769
- Computed CI value (SUM149PT cells; [47]): 0.777
- Combination Fa (SUM149PT cells; [47]): 0.745
- Computed CI value (SUM149PT cells; [48]): 0.582
- Combination Fa (SUM149PT cells; [48]): 0.813
- Computed CI value (SUM149PT cells; [49]): 0.565
- Combination Fa (SUM149PT cells; [49]): 0.849
- Computed CI value (SUM149PT cells; [50]): 0.543
- Combination Fa (SUM149PT cells; [50]): 0.888
- Computed CI value (SUM149PT cells; [51]): 0.504
- Combination Fa (SUM149PT cells; [51]): 0.925
- Computed CI value (A549 cells [3]; [52]): 0.569
- Combination Fa (A549 cells [3]; [52]): 0.4457
- Computed CI value (A549 cells [3]; [53]): 0.514
- Combination Fa (A549 cells [3]; [53]): 0.5278
- Computed CI value (A549 cells [3]; [54]): 0.5
- Combination Fa (A549 cells [3]; [54]): 0.6046
- Computed CI value (A549 cells [3]; [55]): 0.506
- Combination Fa (A549 cells [3]; [55]): 0.6769
- Computed CI value (A549 cells [3]; [56]): 0.452
- Combination Fa (A549 cells [3]; [56]): 0.7607
- Computed CI value (A549 cells [3]; [57]): 0.357
- Combination Fa (A549 cells [3]; [57]): 0.8409
- Computed CI value (A549 cells [3]; [58]): 0.589
- Combination Fa (A549 cells [3]; [58]): 0.8482

Source: US20260373156A1, “CANCER TREATMENTS USING MTA-COOPERATIVE PRMT5 INHIBITORS” (AMGEN INC., priority 2022, published 2026)
